Laboratory results reported in publication PMC317295 (BMC Pharmacology, 2003).

Molecular target: β2-adrenergic receptor (β2AR) (Homo sapiens, UniProt P07550)
Experiment: radioligand saturation binding on membranes

Chain of β2-adrenergic receptor (β2AR) (P07550 whole entry): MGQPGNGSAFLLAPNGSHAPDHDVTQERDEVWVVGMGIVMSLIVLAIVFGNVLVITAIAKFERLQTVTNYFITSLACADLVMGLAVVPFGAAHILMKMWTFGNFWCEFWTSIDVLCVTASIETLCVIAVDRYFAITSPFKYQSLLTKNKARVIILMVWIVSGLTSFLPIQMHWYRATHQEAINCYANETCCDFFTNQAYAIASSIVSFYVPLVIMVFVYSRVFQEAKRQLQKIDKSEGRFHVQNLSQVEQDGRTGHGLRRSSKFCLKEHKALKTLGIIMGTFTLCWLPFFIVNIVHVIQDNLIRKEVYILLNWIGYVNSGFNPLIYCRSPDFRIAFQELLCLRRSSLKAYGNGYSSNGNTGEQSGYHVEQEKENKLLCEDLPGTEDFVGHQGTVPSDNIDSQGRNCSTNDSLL

CCCc1ccccc1OCC(O)CNC(C)C (stereo not shown) [[3H]dihydroalprenolol]
Kd: 0.42 ± 0.1 nM
